Earlier results in US9050341B2, “Methods of treating drug resistant and other tumors by administering 6,7-dialkoxy quinazoline derivatives” (NATCO PHARMA LIMITED, priority 2009, dated 2015).
Where a name gives a salt, the structure may show the parent alone.

Details: beagle dogs; source not stated; cited from earlier work

C#Cc1cccc(Nc2ncnc3cc(OCCOC)c(OCCOC)cc23)c1 [Erlotinib HCl, N-(3-Ethylnylphenyl)-6,7-bis(2-methoxyethoxy)-4-quinazolinamine]
no observed adverse effect level (NOAEL), corresponding value: 5 mg/kg b.wt/day
